Measured values published in publication PMC10553838, “Functional and structural insights into the multi-step activation and catalytic mechanism of bacterial ExoY nucleotidyl cyclase toxins bound to actin-profilin” (PLOS Pathogens, 2023).

What was measured:
Format in all cases: biochemical
[1] = target: T1, Vn-ExoY (Vn-ExoY^455-863) activated by G-actin-ATP/ADP-LatB (Vibrio nigripulchritudo, UniProt A0A9P1NJI6); assay: cCMP synthesis, [alpha-33P]NTP assay; conditions: 2 mM CTP, MgCl2, 6 uM LatB-Mg-G-actin, pH 8.0, 30 °C; labelled compound
T1 construct: gene VIBNI_0210; ExoY effector domain of MARTX toxin, residues 3455-3863, N-terminal twin-Strep-tag with PreScission site (cleaved for crystals), E. coli BL21(DE3); with rabbit skeletal muscle G-actin; with Actin, alpha skeletal muscle

[2] = target: T2, Pa-ExoY activated by F-actin (Pseudomonas aeruginosa, UniProt O85345); assay: cGMP synthesis, [alpha-33P]NTP assay; conditions: 2 mM GTP, MgCl2, 3 uM Mg-F-actin, pH 8.0, 30 °C; labelled compound
T2 construct: residues 20-378, N-terminal twin-Strep-tag (ST2), E. coli BL21(DE3), 44 kDa monomer; with Actin, alpha skeletal muscle

[3] = target: T2, Pa-ExoY activated by F-actin; assay: cUMP synthesis, [alpha-33P]NTP assay; conditions: 2 mM UTP, MgCl2, 6 uM Mg-F-actin, pH 8.0, 30 °C; labelled compound

## Nc1ccn([C@@H]2O[C@H](COP(=O)(O)OP(=O)(O)OP(=O)(O)O)[C@@H](O)[C@H]2O)c(=O)n1 [CTP]
[1]
  cCMP synthesis, [alpha-33P]NTP assay: cCMP synthesis catalysed by wild-type or mutants of Vn-ExoY activated by G-actin

## Nc1nc2c(ncn2[C@@H]2O[C@H](COP(=O)(O)OP(=O)(O)OP(=O)(O)O)[C@@H](O)[C@H]2O)c(=O)[nH]1 [GTP]
[2]
  cGMP synthesis, [alpha-33P]NTP assay: cGMP synthesis catalysed by wild-type or mutants of Pa-ExoY activated by F-actin

## O=c1ccn([C@@H]2O[C@H](COP(=O)(O)OP(=O)(O)OP(=O)(O)O)[C@@H](O)[C@H]2O)c(=O)[nH]1 [UTP]
[3]
  cUMP synthesis, [alpha-33P]NTP assay: cCMP and cUMP synthesis catalysed by wild-type or mutants of Pa-ExoY activated by F-actin
